Legend:
Experiment in all cases: KINOMEscan competition binding
Conditions in all cases: OR0642 1 µM; read-out: %Control
FGFR2 = molecular target: T1, FGFR2 (Homo sapiens, UniProt P21802)
T1 construct: purchased Eurofins DiscoverX (KINOMEscan scanEDGE 97)
Protocol: (§1) Kinome profiling was provided by Eurofins DiscoverX Corporation. Determination of the % control activity for 97 kinases was obtained through an active site-directed competition binding assay that quantitatively measure interactions between compound and kinases. OR0642 was used at 1 μM.
(§2) Supplementary Table 3. KINOMEscan™ Profiling of OR0642. Competition binding assay to
(§3) quantitatively measure interactions between OR0642 (1 µM) and 97 human kinases and disease
(§4) relevant mutant variants.

PIK3CA = molecular target: T2, PIK3CA (Homo sapiens, UniProt P42336)
T2 construct: purchased Eurofins DiscoverX (KINOMEscan scanEDGE 97)
Protocol: as §1, §2, §3, §4

PDGFRB = molecular target: T3, PDGFRB (Homo sapiens, UniProt P09619)
T3 construct: purchased Eurofins DiscoverX (KINOMEscan scanEDGE 97)
Protocol: as §1, §2, §3, §4

KIT(V559D,T670I) = molecular target: T4, KIT(V559D,T670I) (Homo sapiens, UniProt P10721, T670I/V559D)
T4 construct: purchased Eurofins DiscoverX (KINOMEscan scanEDGE 97)
Protocol: as §1, §2, §3, §4

MLK1 = molecular target: T5, MLK1 (Homo sapiens, UniProt P80192)
T5 construct: purchased Eurofins DiscoverX (KINOMEscan scanEDGE 97)
T5 sequence (P80192 whole entry): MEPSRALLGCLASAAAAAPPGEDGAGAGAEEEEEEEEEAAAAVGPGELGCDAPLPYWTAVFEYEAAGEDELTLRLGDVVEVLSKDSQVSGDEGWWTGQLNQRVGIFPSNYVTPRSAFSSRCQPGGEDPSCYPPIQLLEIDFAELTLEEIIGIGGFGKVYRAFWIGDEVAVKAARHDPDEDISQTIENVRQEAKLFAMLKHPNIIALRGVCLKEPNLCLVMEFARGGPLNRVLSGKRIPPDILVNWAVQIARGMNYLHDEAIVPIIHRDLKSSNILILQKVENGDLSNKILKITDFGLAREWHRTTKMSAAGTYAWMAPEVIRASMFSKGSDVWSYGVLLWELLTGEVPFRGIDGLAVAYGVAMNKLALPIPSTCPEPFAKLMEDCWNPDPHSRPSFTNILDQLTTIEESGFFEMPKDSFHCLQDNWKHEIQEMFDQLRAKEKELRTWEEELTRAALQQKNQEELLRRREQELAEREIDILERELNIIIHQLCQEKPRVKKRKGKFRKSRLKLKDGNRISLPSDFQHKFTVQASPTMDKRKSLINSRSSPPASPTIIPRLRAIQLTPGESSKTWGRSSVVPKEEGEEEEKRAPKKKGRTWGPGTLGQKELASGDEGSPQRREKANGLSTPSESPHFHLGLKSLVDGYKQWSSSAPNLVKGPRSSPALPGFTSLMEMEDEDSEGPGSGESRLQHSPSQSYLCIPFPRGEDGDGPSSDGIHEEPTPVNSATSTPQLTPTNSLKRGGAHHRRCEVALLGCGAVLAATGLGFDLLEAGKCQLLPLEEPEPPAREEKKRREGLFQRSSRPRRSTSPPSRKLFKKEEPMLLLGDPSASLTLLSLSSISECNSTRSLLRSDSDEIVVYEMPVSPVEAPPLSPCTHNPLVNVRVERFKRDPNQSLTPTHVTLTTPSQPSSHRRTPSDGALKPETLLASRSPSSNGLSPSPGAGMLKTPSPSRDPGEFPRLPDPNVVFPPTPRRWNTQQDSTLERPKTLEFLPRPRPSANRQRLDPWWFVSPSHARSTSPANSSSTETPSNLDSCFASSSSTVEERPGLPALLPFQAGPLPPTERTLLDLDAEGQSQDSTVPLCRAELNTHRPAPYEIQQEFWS
Protocol: as §1, §2, §3, §4

MEK1 = molecular target: T6, MEK1 (Homo sapiens, UniProt Q02750)
T6 construct: purchased Eurofins DiscoverX (KINOMEscan scanEDGE 97)
Protocol: as §1, §2, §3, §4

BRAF = molecular target: T7, BRAF (Homo sapiens, UniProt P15056)
T7 construct: purchased Eurofins DiscoverX (KINOMEscan scanEDGE 97)
Protocol: as §1, §2, §3, §4

GSK3B = molecular target: T8, GSK3B (Homo sapiens, UniProt P49841)
T8 construct: purchased Eurofins DiscoverX (KINOMEscan scanEDGE 97)
Protocol: as §1, §2, §3, §4

[1] = molecular target: T9, ABL1(E255K)-phosphorylated (Homo sapiens, UniProt P00519, E255K)
T9 construct: purchased Eurofins DiscoverX (KINOMEscan scanEDGE 97)
Protocol: as §1, §2, §3, §4

PAK2 = molecular target: T10, PAK2 (Homo sapiens, UniProt Q13177)
T10 construct: purchased Eurofins DiscoverX (KINOMEscan scanEDGE 97)
T10 sequence (Q13177 whole entry): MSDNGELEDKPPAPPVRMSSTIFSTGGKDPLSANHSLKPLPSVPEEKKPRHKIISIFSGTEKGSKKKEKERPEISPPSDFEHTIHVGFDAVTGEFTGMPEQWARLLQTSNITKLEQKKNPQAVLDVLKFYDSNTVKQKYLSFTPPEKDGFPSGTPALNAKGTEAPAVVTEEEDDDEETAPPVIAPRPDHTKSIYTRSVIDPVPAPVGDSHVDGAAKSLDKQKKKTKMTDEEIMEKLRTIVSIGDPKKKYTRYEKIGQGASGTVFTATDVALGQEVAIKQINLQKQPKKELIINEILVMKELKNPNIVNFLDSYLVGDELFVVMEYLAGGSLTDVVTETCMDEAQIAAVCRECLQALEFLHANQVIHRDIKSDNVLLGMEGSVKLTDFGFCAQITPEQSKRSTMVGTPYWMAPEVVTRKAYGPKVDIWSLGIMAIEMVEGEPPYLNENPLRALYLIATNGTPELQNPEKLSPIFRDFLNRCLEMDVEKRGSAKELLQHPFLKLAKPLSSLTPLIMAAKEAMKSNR
Protocol: as §1, §2, §3, §4

INSR = molecular target: T11, INSR (Homo sapiens, UniProt P06213)
T11 construct: purchased Eurofins DiscoverX (KINOMEscan scanEDGE 97)
Protocol: as §1, §2, §3, §4

PIK3C2B = molecular target: T12, PIK3C2B (Homo sapiens, UniProt O00750)
T12 construct: purchased Eurofins DiscoverX (KINOMEscan scanEDGE 97)
Protocol: as §1, §2, §3, §4

PAK1 = molecular target: T13, PAK1 (Homo sapiens, UniProt Q13153)
T13 construct: purchased Eurofins DiscoverX (KINOMEscan scanEDGE 97)
Protocol: as §1, §2, §3, §4

PAK4 = molecular target: T14, PAK4 (Homo sapiens, UniProt O96013)
T14 construct: purchased Eurofins DiscoverX (KINOMEscan scanEDGE 97)
Protocol: as §1, §2, §3, §4

AURKA = molecular target: T15, AURKA (Homo sapiens, UniProt O14965)
T15 construct: purchased Eurofins DiscoverX (KINOMEscan scanEDGE 97)
Protocol: as §1, §2, §3, §4

IGF1R = molecular target: T16, IGF1R (Homo sapiens, UniProt P08069)
T16 construct: purchased Eurofins DiscoverX (KINOMEscan scanEDGE 97)
Protocol: as §1, §2, §3, §4

FLT3 = molecular target: T17, FLT3 (Homo sapiens, UniProt P36888)
T17 construct: purchased Eurofins DiscoverX (KINOMEscan scanEDGE 97)
Protocol: as §1, §2, §3, §4

KIT(D816V) = molecular target: T18, KIT(D816V) (Homo sapiens, UniProt P10721, D816V)
T18 construct: purchased Eurofins DiscoverX (KINOMEscan scanEDGE 97)
Protocol: as §1, §2, §3, §4

[2] = molecular target: T19, ABL1(T315I)-phosphorylated (Homo sapiens, UniProt P00519, T315I)
T19 construct: purchased Eurofins DiscoverX (KINOMEscan scanEDGE 97)
Protocol: as §1, §2, §3, §4

DCAMKL1 = molecular target: T20, DCAMKL1 (Homo sapiens, UniProt O15075)
T20 construct: purchased Eurofins DiscoverX (KINOMEscan scanEDGE 97)
T20 sequence (O15075 whole entry): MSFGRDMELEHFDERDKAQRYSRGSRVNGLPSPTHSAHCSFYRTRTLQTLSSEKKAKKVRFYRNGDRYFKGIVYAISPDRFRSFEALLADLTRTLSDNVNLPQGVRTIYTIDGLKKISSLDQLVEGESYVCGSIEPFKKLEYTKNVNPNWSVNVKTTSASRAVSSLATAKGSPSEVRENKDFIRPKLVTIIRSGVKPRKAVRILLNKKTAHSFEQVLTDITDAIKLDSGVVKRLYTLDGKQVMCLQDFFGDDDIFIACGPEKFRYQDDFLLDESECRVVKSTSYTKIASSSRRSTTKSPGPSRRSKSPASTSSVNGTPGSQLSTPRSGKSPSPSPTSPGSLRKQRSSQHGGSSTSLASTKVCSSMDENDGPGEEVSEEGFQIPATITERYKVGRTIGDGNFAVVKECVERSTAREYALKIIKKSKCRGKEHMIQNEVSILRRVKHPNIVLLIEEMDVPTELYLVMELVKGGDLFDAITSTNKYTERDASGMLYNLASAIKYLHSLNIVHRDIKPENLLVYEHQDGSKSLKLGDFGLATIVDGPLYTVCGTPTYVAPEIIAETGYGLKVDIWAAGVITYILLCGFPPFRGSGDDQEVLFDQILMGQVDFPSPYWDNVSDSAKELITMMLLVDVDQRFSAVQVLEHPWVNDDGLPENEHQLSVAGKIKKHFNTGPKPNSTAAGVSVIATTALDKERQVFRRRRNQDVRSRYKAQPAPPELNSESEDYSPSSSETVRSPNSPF
Protocol: as §1, §2, §3, §4

MET = molecular target: T21, MET (Homo sapiens, UniProt P08581)
T21 construct: purchased Eurofins DiscoverX (KINOMEscan scanEDGE 97)
Protocol: as §1, §2, §3, §4

CDK2 = molecular target: T22, CDK2 (Homo sapiens, UniProt P24941)
T22 construct: purchased Eurofins DiscoverX (KINOMEscan scanEDGE 97)
Protocol: as §1, §2, §3, §4

DYRK1B = molecular target: T23, DYRK1B (Homo sapiens, UniProt Q9Y463)
T23 construct: purchased Eurofins DiscoverX (KINOMEscan scanEDGE 97)
T23 sequence (Q9Y463 whole entry): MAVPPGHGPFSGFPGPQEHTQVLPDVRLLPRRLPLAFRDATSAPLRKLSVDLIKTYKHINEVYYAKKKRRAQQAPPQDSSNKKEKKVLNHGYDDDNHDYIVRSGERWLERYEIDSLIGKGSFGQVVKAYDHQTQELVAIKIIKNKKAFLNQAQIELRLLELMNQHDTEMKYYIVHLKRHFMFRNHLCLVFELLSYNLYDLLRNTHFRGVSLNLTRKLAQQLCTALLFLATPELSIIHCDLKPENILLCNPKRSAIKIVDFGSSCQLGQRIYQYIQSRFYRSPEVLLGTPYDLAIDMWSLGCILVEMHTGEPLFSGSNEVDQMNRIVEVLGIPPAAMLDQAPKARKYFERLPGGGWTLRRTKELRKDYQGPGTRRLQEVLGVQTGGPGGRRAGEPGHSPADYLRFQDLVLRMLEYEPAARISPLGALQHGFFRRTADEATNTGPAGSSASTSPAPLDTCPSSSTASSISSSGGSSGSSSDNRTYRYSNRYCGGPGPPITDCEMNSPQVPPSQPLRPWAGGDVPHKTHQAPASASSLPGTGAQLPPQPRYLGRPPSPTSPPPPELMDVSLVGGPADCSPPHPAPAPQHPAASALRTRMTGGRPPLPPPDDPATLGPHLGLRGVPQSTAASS
Protocol: as §1, §2, §3, §4

IKK-alpha = molecular target: T24, IKK-alpha (Homo sapiens, UniProt O15111)
T24 construct: purchased Eurofins DiscoverX (KINOMEscan scanEDGE 97)
Protocol: as §1, §2, §3, §4

EPHA2 = molecular target: T25, EPHA2 (Homo sapiens, UniProt P29317)
T25 construct: purchased Eurofins DiscoverX (KINOMEscan scanEDGE 97)
Protocol: as §1, §2, §3, §4

FGFR3 = molecular target: T26, FGFR3 (Homo sapiens, UniProt P22607)
T26 construct: purchased Eurofins DiscoverX (KINOMEscan scanEDGE 97)
Protocol: as §1, §2, §3, §4

BTK = molecular target: T27, BTK (Homo sapiens, UniProt Q06187)
T27 construct: purchased Eurofins DiscoverX (KINOMEscan scanEDGE 97)
T27 sequence (Q06187 whole entry): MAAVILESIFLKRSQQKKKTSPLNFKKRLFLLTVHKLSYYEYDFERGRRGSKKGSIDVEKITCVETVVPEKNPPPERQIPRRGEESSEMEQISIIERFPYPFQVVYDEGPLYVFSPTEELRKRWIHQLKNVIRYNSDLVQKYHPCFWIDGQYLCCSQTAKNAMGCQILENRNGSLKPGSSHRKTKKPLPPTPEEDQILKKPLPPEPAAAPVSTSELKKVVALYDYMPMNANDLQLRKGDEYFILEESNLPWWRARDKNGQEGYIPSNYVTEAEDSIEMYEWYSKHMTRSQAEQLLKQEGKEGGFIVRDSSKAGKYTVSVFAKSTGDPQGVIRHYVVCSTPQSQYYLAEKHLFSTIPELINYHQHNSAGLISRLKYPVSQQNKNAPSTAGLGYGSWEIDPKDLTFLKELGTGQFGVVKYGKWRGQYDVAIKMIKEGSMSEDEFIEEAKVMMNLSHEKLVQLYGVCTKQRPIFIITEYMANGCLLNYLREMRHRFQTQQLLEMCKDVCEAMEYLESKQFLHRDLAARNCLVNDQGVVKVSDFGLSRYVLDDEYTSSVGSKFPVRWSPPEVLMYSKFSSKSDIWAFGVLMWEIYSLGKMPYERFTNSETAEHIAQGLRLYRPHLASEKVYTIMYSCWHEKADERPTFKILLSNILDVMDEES
Protocol: as §1, §2, §3, §4

PCTK1 = molecular target: T28, PCTK1 (Homo sapiens, UniProt Q00536)
T28 construct: purchased Eurofins DiscoverX (KINOMEscan scanEDGE 97)
T28 sequence (Q00536 whole entry): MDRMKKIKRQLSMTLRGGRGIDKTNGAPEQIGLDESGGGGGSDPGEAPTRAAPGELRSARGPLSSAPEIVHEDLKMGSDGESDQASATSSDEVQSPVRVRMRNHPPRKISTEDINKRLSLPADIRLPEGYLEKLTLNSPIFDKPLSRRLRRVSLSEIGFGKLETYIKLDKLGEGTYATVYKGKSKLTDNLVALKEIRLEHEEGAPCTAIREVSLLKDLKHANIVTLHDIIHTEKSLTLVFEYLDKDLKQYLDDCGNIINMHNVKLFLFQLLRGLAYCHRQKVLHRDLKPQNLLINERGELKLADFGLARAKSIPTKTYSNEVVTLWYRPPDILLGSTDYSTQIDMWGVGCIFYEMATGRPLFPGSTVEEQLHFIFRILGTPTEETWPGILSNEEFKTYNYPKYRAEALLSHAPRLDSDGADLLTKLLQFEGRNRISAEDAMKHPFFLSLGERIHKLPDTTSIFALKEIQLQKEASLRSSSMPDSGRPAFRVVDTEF
Protocol: as §1, §2, §3, §4

AKT2 = molecular target: T29, AKT2 (Homo sapiens, UniProt P31751)
T29 construct: purchased Eurofins DiscoverX (KINOMEscan scanEDGE 97)
Protocol: as §1, §2, §3, §4

LKB1 = molecular target: T30, LKB1 (Homo sapiens, UniProt Q15831)
T30 construct: purchased Eurofins DiscoverX (KINOMEscan scanEDGE 97)
Protocol: as §1, §2, §3, §4

AURKB = molecular target: T31, AURKB (Homo sapiens, UniProt Q96GD4)
T31 construct: purchased Eurofins DiscoverX (KINOMEscan scanEDGE 97)
Protocol: as §1, §2, §3, §4

BMPR2 = molecular target: T32, BMPR2 (Homo sapiens, UniProt Q13873)
T32 construct: purchased Eurofins DiscoverX (KINOMEscan scanEDGE 97)
Protocol: as §1, §2, §3, §4

PDGFRA = molecular target: T33, PDGFRA (Homo sapiens, UniProt P16234)
T33 construct: purchased Eurofins DiscoverX (KINOMEscan scanEDGE 97)
Protocol: as §1, §2, §3, §4

CDK9 = molecular target: T34, CDK9 (Homo sapiens, UniProt P50750)
T34 construct: purchased Eurofins DiscoverX (KINOMEscan scanEDGE 97)
Protocol: as §1, §2, §3, §4

AXL = molecular target: T35, AXL (Homo sapiens, UniProt P30530)
T35 construct: purchased Eurofins DiscoverX (KINOMEscan scanEDGE 97)
T35 sequence (P30530 26-894): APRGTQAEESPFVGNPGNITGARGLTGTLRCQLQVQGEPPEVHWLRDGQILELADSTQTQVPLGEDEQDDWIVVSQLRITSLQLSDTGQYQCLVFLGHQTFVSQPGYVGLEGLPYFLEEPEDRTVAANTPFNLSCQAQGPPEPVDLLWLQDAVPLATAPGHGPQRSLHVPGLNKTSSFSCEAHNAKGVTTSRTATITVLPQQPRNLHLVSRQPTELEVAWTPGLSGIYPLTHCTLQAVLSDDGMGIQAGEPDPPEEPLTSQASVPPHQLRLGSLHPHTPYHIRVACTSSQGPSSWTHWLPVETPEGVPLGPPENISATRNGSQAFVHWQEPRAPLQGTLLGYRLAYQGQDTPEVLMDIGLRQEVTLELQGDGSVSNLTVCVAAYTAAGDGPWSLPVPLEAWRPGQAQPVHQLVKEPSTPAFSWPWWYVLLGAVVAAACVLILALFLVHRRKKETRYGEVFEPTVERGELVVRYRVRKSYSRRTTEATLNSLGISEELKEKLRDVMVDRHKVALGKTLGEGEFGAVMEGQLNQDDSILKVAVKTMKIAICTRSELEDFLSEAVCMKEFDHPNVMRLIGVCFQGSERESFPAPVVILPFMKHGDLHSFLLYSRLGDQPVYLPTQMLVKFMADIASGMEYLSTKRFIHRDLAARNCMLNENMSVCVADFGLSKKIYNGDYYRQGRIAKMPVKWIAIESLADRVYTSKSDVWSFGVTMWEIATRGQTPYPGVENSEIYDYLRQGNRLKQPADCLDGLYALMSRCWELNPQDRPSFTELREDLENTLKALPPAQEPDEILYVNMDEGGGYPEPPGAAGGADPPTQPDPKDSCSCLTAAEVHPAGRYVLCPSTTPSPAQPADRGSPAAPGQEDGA
Protocol: as §1, §2, §3, §4

CDK3 = molecular target: T36, CDK3 (Homo sapiens, UniProt Q00526)
T36 construct: purchased Eurofins DiscoverX (KINOMEscan scanEDGE 97)
Protocol: as §1, §2, §3, §4

EGFR = molecular target: T37, EGFR (Homo sapiens, UniProt P00533)
T37 construct: purchased Eurofins DiscoverX (KINOMEscan scanEDGE 97)
Protocol: as §1, §2, §3, §4

JNK1 = molecular target: T38, JNK1 (Homo sapiens, UniProt P45983)
T38 construct: purchased Eurofins DiscoverX (KINOMEscan scanEDGE 97)
Protocol: as §1, §2, §3, §4

MKNK1 = molecular target: T39, MKNK1 (Homo sapiens, UniProt Q9BUB5)
T39 construct: purchased Eurofins DiscoverX (KINOMEscan scanEDGE 97)
Protocol: as §1, §2, §3, §4

MARK3 = molecular target: T40, MARK3 (Homo sapiens, UniProt P27448)
T40 construct: purchased Eurofins DiscoverX (KINOMEscan scanEDGE 97)
Protocol: as §1, §2, §3, §4

ABL1-phosphorylated = molecular target: T41, ABL1-phosphorylated (Homo sapiens, UniProt P00519)
T41 construct: purchased Eurofins DiscoverX (KINOMEscan scanEDGE 97)
Protocol: as §1, §2, §3, §4

ACVR1B = molecular target: T42, ACVR1B (Homo sapiens, UniProt P36896)
T42 construct: purchased Eurofins DiscoverX (KINOMEscan scanEDGE 97)
Protocol: as §1, §2, §3, §4

CCCN(c1nc(-c2nc(N)cc(N)n2)cs1)c1cc(-c2ccc(S(=O)(=O)N3CCN(C)CC3)cc2C(F)(F)F)ccc1C [OR0642]
remaining binding at 1 µM (FGFR2): 89% | remaining binding at 1 µM (PIK3CA): 100% | remaining binding at 1 µM (PDGFRB): 100% | remaining binding at 1 µM (KIT(V559D,T670I)): 100% | remaining binding at 1 µM (MLK1): 91% | remaining binding at 1 µM (MEK1): 97% | remaining binding at 1 µM (BRAF): 99% | remaining binding at 1 µM (GSK3B): 100% | remaining binding at 1 µM [1]: 96% | remaining binding at 1 µM (PAK2): 98% | remaining binding at 1 µM (INSR): 99% | remaining binding at 1 µM (PIK3C2B): 100% | remaining binding at 1 µM (PAK1): 100% | remaining binding at 1 µM (PAK4): 91% | remaining binding at 1 µM (AURKA): 96% | remaining binding at 1 µM (IGF1R): 93% | remaining binding at 1 µM (FLT3): 100% | remaining binding at 1 µM (KIT(D816V)): 94% | remaining binding at 1 µM [2]: 89% | remaining binding at 1 µM (DCAMKL1): 81% | remaining binding at 1 µM (MET): 100% | remaining binding at 1 µM (CDK2): 100% | remaining binding at 1 µM (DYRK1B): 100% | remaining binding at 1 µM (IKK-alpha): 65% | remaining binding at 1 µM (EPHA2): 90% | remaining binding at 1 µM (FGFR3): 79% | remaining binding at 1 µM (BTK): 92% | remaining binding at 1 µM (PCTK1): 98% | remaining binding at 1 µM (AKT2): 100% | remaining binding at 1 µM (LKB1): 99% | remaining binding at 1 µM (AURKB): 85% | remaining binding at 1 µM (BMPR2): 94% | remaining binding at 1 µM (PDGFRA): 97% | remaining binding at 1 µM (CDK9): 98% | remaining binding at 1 µM (AXL): 89% | remaining binding at 1 µM (CDK3): 97% | remaining binding at 1 µM (EGFR): 82% | remaining binding at 1 µM (JNK1): 93% | remaining binding at 1 µM (MKNK1): 100% | remaining binding at 1 µM (MARK3): 100% | remaining binding at 1 µM (ABL1-phosphorylated): 99% | remaining binding at 1 µM (ACVR1B): 86%

— article PMC10227015, “From a drug repositioning to a structure-based drug design approach to tackle acute lymphoblastic leukemia” (Nature Communications, 2023)
